Test results taken from patent US12161609B2, “Composition and method for treating autism spectrum disorder (ASD) symptoms of paranoia with self isolation and/or aggression” (priority 2021, dated 2024).

Tests used:
[1] = test system: ASD aggression toward others or self and paranoia/social isolation; settings: for aggression and self-injury: Example 1: ASD person (when on the combination); for aggression and self-injury / paranoia/social isolation behavior: combination dosed twice daily as in TABLE 1; for loss of effectiveness (tachyphylaxis): after two years use
[2] = test system: autistic patients; settings: oxcarbazepine alone vs. placebo, 2011 to 2021; cited from earlier work

SMILES: CNCCC(Oc1ccc(C(F)(F)F)cc1)c1ccccc1 (stereo not drawn) [fluoxetine]
- ability to attend school ([1]; Example 1: ASD person): unable to attend schooling
- aggression and self-injury [1]: self-injury slightly decreased
- paranoia/social isolation behavior ([1]; Example 1: ASD person): remained paranoid

SMILES: NC(=O)N1c2ccccc2CC(=O)c2ccccc21 [oxcarbazepine]
- adverse effects in autistic subjects [2]: so many adverse effects in autistic subjects that they drop out of the study

SMILES: Cc1nc2n(c(=O)c1CCN1CCC(c3noc4cc(F)ccc34)CC1)CCCC2 [risperidone]
- self-injury behavior, aggression toward others and social isolation symptoms ([1]; Example 3: adult ASD, combination dosed early morning and after 5:00 pm): could no longer be successfully treated
- loss of effectiveness (tachyphylaxis) ([1]; summary over the ASD subjects): tachyphylactic loss of effectiveness

SMILES: O=C1CCc2ccc(OCCCCN3CCN(c4cccc(Cl)c4Cl)CC3)cc2N1 [aripiprazole]
- dyskinesia / tardive dyskinesia and dystonias ([1]; Example 1: ASD person): developed tardive dyskinesia and dystonias
- aggression and self-injury [1]: successful alleviation of aggression
- paranoia/social isolation behavior ([1]; Example 1: ASD person): improvement in paranoia/social isolation behaviors
- drug-induced hallucinations, aggression and paranoia ([1]; Example 1: within a half hour of taking the drug, after 1 and ½ years of use): induced hallucinations, severe aggression and paranoia
- loss of effectiveness (tachyphylaxis) ([1]; summary over the ASD subjects): tachyphylactic loss of effectiveness
- tardive dyskinesia / dystonic side effects ([1]; summary over the ASD subjects, long-term use (two years for the antipsychotics)): developed tardive dyskinesia
